Like-named read-outs stand apart in the source and are kept apart here.
Columns and labels:
[1] = target: human EGFR (native sequence) (Homo sapiens, UniProt P00533); experiment: Kinase inhibitory activity against human EGFR (native sequence); format: biochemical; conditions: 10 μM ATP, read-out: IC50 for kinase inhibition, EGFR
Method in brief: (§1)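 Ten-point dose-response curves were run in singlicate from a 3 μM top concentration, with ATP at 10 μM.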

EGFR L858R = EGFR L858R (Homo sapiens, UniProt P00533, L858R); experiment: Kinase inhibitory activity against EGFR bearing the L858R mutation; format: biochemical; conditions: 10 μM ATP, read-out: IC50 for kinase inhibition, EGFR L858R
Chain of EGFR L858R (P00533 25-1210 L858R): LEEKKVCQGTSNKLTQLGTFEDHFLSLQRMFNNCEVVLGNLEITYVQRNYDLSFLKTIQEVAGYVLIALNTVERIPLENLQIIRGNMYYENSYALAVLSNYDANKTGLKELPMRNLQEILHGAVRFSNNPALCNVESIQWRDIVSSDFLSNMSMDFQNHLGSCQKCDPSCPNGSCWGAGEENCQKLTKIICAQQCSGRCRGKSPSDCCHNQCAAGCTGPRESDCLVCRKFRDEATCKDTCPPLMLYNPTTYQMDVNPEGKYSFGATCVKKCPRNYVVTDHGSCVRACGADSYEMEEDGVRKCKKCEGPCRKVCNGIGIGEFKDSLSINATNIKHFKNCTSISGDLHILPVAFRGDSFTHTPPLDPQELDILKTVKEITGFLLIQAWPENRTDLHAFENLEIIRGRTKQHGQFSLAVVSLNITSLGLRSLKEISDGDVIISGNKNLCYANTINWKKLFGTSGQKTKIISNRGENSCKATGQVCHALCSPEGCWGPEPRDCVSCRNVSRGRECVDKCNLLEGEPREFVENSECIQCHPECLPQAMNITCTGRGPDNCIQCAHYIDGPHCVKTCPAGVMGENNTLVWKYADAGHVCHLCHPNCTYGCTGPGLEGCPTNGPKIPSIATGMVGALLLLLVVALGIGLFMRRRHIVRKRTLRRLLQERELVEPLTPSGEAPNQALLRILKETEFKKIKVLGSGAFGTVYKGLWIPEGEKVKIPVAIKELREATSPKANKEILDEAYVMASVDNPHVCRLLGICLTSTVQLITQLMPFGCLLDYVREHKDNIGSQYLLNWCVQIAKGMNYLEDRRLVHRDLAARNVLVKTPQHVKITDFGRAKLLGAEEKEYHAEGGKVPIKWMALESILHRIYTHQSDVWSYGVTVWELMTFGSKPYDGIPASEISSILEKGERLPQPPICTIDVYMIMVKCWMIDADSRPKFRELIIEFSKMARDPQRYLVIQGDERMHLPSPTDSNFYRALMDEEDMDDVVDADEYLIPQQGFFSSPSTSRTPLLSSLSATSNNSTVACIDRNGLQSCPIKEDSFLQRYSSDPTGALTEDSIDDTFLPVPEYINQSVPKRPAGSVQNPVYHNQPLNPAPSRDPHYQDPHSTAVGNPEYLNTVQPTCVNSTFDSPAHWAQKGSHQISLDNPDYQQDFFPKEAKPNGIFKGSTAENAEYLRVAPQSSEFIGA
Method in brief: as §1

EGFR L858R/T790M = EGFR L858R/T790M (Homo sapiens, UniProt P00533, L858R/T790M); experiment: Kinase inhibitory activity against EGFR bearing the L858R/T790M double mutation; format: biochemical; conditions: 10 μM ATP, read-out: IC50 for kinase inhibition, EGFR L858R T790M
Chain of EGFR L858R/T790M (P00533 25-1210 T790M/L858R): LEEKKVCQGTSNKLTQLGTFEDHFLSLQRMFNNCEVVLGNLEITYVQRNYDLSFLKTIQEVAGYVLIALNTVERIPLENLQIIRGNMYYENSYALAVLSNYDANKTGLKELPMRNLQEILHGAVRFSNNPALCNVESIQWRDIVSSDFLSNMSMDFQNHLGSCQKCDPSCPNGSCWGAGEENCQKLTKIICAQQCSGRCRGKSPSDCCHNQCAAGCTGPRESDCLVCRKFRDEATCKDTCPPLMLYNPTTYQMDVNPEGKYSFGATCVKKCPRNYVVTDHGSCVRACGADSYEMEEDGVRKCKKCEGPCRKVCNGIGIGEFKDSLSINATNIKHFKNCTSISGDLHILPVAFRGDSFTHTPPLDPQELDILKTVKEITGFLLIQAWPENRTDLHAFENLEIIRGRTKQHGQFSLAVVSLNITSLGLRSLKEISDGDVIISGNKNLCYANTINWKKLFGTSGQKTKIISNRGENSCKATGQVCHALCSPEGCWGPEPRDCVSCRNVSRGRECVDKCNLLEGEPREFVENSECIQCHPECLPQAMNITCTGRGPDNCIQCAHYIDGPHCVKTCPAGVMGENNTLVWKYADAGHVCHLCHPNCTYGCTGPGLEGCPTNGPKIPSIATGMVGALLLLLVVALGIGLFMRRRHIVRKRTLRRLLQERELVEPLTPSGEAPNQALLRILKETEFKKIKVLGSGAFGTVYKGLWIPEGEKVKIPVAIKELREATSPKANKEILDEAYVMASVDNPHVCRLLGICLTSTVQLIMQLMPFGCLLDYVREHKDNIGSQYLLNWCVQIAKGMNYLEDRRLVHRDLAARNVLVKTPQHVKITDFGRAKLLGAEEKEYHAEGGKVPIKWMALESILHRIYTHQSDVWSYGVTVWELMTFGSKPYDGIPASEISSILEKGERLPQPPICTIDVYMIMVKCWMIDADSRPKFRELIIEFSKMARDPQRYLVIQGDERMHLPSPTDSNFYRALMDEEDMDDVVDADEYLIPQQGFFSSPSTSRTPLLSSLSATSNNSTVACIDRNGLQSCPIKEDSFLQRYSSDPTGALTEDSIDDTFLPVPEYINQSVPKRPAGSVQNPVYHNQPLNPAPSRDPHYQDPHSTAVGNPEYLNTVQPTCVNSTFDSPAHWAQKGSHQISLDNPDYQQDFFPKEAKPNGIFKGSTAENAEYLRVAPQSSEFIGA
Method in brief: as §1

[2] = target: T1, BaF3 cells expressing the target EGFR mutations (Homo sapiens, UniProt P00533, T790M, cells depend on it, form not given); experiment: Antiproliferative activity (MTT) against BaF3 cells expressing the target EGFR mutations; format: cell-based; conditions: BAF3 EGFR DEL T790M PURO POOL cells, read-out: IC50, BAF3 EGFR DEL T790M PURO POOL
T1 construct: IC50, BAF3 EGFR DEL T790M PURO POOL; other: BAF3 EGFR DEL T790M PURO POOL cells, MTT; other: BAF3 EGFR DEL T790M PURO POOL cells; MTT
Method in brief: (§2)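 Growth inhibition of EGFR-mutant BaF3 cells was assessed with an MTT assay. A BaF3 line expressing wildtype EGFR served as comparator.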

[3] = target: T2, BaF3 cells expressing the target EGFR mutations (Homo sapiens, UniProt P00533, T790M/L858R, cells depend on it); experiment: as above; format: cell-based; conditions: BAF3 EGFR L858R-T790M PURO POOL cells, read-out: IC50, BAF3 EGFR L858R-T790M PURO POOL
T2 construct: IC50, BAF3 EGFR L858R-T790M PURO POOL; other: BAF3 EGFR L858R-T790M PURO POOL cells, MTT; IC50, BAF3 EGFR L858R-T790M PURO POOL; other: BAF3 EGFR L858R-T790M PURO POOL cells; MTT
T2 sequence (P00533 whole entry T790M/L858R): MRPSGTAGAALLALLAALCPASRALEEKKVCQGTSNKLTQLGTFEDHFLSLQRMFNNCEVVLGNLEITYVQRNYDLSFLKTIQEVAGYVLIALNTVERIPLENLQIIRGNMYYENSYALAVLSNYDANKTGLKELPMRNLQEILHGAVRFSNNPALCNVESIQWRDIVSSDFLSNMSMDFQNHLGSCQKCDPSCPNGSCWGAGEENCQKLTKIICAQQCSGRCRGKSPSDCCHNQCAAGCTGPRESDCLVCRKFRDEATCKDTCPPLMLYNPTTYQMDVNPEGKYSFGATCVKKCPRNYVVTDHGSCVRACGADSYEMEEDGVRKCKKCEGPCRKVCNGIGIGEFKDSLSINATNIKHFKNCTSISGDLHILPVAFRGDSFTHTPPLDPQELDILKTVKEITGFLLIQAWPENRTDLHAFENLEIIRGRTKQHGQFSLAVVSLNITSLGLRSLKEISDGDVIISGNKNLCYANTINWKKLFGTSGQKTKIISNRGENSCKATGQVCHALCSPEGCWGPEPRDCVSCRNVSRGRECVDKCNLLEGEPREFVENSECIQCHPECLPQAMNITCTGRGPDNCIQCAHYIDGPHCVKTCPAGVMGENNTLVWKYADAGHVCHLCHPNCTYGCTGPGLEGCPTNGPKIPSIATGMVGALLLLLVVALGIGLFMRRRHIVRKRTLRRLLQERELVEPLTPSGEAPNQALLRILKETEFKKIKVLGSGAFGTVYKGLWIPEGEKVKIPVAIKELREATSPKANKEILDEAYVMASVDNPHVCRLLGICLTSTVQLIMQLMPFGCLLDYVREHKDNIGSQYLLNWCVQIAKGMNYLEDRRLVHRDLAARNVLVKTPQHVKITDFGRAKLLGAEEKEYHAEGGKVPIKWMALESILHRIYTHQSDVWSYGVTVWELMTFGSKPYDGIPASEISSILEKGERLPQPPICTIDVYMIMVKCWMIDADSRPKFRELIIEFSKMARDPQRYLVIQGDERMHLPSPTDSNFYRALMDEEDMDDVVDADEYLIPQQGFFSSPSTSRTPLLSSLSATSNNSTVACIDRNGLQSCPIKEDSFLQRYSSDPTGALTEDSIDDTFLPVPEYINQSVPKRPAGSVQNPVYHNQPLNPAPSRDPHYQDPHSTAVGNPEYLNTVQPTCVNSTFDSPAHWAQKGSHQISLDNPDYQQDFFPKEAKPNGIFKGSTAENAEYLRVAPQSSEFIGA
Method in brief: as §2

[4] = tested on: BaF3 cells expressing wildtype EGFR; experiment: Antiproliferative activity (MTT) against control BaF3 cells expressing wildtype EGFR; format: cell-based; conditions: Mus musculus
Method in brief: as §2

[5] = 10 pt curves, 3 μM top concentration
[6] = EGFR L858R/T790M double mutation

Chain of human EGFR (native sequence) (P00533 25-1210): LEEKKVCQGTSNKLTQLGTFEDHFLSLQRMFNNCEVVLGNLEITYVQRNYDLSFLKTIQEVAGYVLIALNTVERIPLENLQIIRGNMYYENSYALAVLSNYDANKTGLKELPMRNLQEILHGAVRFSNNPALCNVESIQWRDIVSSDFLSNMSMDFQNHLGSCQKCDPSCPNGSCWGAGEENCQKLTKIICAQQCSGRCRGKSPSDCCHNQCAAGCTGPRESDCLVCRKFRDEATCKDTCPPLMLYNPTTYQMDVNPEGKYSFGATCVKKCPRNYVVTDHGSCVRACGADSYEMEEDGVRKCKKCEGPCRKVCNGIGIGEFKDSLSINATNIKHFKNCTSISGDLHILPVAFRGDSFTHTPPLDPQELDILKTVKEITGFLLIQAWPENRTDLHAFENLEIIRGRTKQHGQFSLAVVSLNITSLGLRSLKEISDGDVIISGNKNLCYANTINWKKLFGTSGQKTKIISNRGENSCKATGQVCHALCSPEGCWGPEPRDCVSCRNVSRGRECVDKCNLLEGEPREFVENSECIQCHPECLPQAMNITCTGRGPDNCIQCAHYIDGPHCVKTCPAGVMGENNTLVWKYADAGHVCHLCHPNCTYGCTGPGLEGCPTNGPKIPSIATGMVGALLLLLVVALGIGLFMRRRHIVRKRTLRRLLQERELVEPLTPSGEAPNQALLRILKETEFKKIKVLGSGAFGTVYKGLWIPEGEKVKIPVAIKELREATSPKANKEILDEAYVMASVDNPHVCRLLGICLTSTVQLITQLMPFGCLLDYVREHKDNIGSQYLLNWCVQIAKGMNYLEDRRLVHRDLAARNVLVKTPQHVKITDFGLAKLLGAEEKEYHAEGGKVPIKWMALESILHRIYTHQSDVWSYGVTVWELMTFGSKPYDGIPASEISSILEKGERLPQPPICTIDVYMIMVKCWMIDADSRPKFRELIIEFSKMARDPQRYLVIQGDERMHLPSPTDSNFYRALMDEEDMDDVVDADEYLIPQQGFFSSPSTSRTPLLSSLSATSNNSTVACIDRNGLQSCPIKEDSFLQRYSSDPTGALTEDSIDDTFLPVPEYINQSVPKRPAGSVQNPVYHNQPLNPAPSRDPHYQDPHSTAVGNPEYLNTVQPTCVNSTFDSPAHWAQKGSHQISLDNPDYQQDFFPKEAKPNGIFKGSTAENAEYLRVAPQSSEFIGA

| SMILES | IC50 [1, 5] [nM] | IC50 (EGFR L858R; [5]) [nM] | IC50 (EGFR L858R/T790M; [5]) [nM] | GI50 [2] [nM] | GI50 [3] [nM] | IC50 ([1]; human EGFR native sequence) [nM] | IC50 (EGFR L858R; EGFR L858R) [nM] | IC50 (EGFR L858R/T790M; [6]) [nM] | IC50 ([4]; BAF3 parental cells) [nM] | IC50 ([4]; BAF3 PARENTAL cells (control)) [nM] |
| --- | --- | --- | --- | --- | --- | --- | --- | --- | --- | --- |
| COc1ccc(NC(=O)C#CC(C)(C)N2CCCC2)cc1Nc1ncc(Cl)c(Nc2ccccc2P(C)(C)=O)n1 [Example 91, N-(3-((5-chloro-4-((2-(dimethylphosphoryl)phenyl)amino)pyrimidin-2-yl)amino)-4-methoxyphenyl)-4-methyl-4-(pyrrolidin-1-yl)pent-2-ynamide] | – | – | – | < 50 | < 50 | < 50 | < 50 | < 50 | – | ≥ 250 |
| C=CC(=O)Nc1cc(Nc2ncc(Cl)c(Nc3ccccc3P(C)(C)=O)n2)c(OC)cc1C#CCN(CC)CC [Example 96, N-(5-((5-chloro-4-((2-(dimethylphosphoryl)phenyl)amino)pyrimidin-2-yl)amino)-2-(3-(diethylamino)prop-1-yn-1-yl)-4-methoxyphenyl)acrylamide] | – | – | – | < 50 | < 50 | ≥ 250 | < 50 | < 50 | – | ≥ 250 |
| C=CC(=O)Nc1cc(Nc2ncc(Cl)c(Nc3ccccc3P(C)(C)=O)n2)c(OC)cc1O[C@@H](COC)CN(C)C [Example 129, (R)-N-(5-((5-chloro-4-((2-(dimethylphosphoryl)phenyl)amino)pyrimidin-2-yl)amino)-2-((1-(dimethylamino)-3-methoxypropan-2-yl)oxy)-4-methoxyphenyl)acrylamide] | < 50 | < 50 | < 50 | < 50 | < 50 | – | – | – | ≥ 250 | – |
| COc1cc(P(C)(C)=O)ccc1Nc1ncc(Cl)c(Oc2cccc(NC(=O)C#CCN(C)C)c2)n1 [Example 83, N-(3-((5-chloro-2-((4-(dimethylphosphoryl)-2-methoxyphenyl)amino)pyrimidin-4-yl)oxy)phenyl)-4-(dimethylamino)but-2-ynamide] | – | – | – | 101 to 250 | ≥ 250 | < 50 | < 50 | < 50 | – | ≥ 250 |
| C=C(CN1CCCCC1)C(=O)Nc1ccc(OC)c(Nc2ncc(Cl)c(Nc3ccccc3P(C)(C)=O)n2)c1 [Example 43, N-(3-((5-chloro-4-((2-(dimethylphosphoryl)phenyl)amino)pyrimidin-2-yl)amino)-4-methoxyphenyl)-2-(piperidin-1-ylmethyl)acrylamide] | – | – | – | < 50 | < 50 | < 50 | < 50 | < 50 | – | ≥ 250 |
| C=CC(=O)Nc1cc(Nc2ncc(Cl)c(Nc3ccccc3P(C)(C)=O)n2)c(OC)cc1N1CCC(N2CCOCC2)CC1 [Example 70, N-(5-((5-chloro-4-((2-(dimethylphosphoryl)phenyl)amino)pyrimidin-2-yl)amino)-4-methoxy-2-(4-morpholinopiperidin-1-yl)phenyl)acrylamide] | – | – | – | < 50 | < 50 | < 50 | < 50 | < 50 | – | ≥ 250 |

Further lines, with some results ahead:

| IC50 [1, 5] [nM] | IC50 (EGFR L858R; [5]) [nM] | IC50 (EGFR L858R/T790M; [5]) [nM] | GI50 [2] [nM] | GI50 [3] [nM] | IC50 ([1]; human EGFR native sequence) [nM] | IC50 (EGFR L858R; EGFR L858R) [nM] | IC50 (EGFR L858R/T790M; [6]) [nM] | SMILES | IC50 ([4]; BAF3 parental cells) [nM] | IC50 ([4]; BAF3 PARENTAL cells (control)) [nM] |
| --- | --- | --- | --- | --- | --- | --- | --- | --- | --- | --- |
| < 50 | < 50 | < 50 | < 50 | < 50 | – | – | – | C=CC(=O)Nc1cc(Nc2ncc(Cl)c(Nc3ccccc3P(C)(C)=O)n2)c(OC)cc1C#CCN(C)C [Example 124, N-(5-((5-chloro-4-((2-(dimethylphosphoryl)phenyl)amino)pyrimidin-2-yl)amino)-2-(3-(dimethylamino)prop-1-yn-1-yl)-4-methoxyphenyl)acrylamide] | ≥ 250 | – |
| – | – | – | < 50 | 50 to 100 | < 50 | < 50 | < 50 | C=CC(=O)Nc1ccc(OC)c(Nc2ncc(Cl)c(Nc3ccc(OC4CCOC4)cc3P(C)(C)=O)n2)c1 (stereo not drawn) [Example 99, N-(3-((5-chloro-4-((2-(dimethylphosphoryl)-4-((tetrahydrofuran-3-yl)oxy)phenyl)amino)pyrimidin-2-yl)amino)-4-methoxyphenyl)acrylamide] | – | ≥ 250 |
| – | – | – | < 50 | 101 to 250 | < 50 | < 50 | < 50 | C=CC(=O)Nc1cc(Nc2ncc(Cl)c(Nc3ccccc3P(C)(C)=O)n2)c(OC)cc1N1CCC(N(C)C)CC1 [Example 23, N-(5-((5-chloro-4-((2-(dimethylphosphoryl)phenyl)amino)pyrimidin-2-yl)amino)-2-(4-(dimethylamino)piperidin-1-yl)-4-methoxyphenyl)acrylamide] | – | ≥ 250 |
| – | – | – | < 50 | < 50 | < 50 | < 50 | < 50 | COc1cc(F)c(NC(=O)C#CC(C)(C)N2CCCC2)cc1Nc1ncc(Cl)c(Nc2ccccc2P(C)(C)=O)n1 [Example 90, N-(5-((5-chloro-4-((2-(dimethylphosphoryl)phenyl)amino)pyrimidin-2-yl)amino)-2-fluoro-4-methoxyphenyl)-4-methyl-4-(pyrrolidin-1-yl)pent-2-ynamide] | – | ≥ 250 |
| – | – | – | < 50 | < 50 | < 50 | < 50 | < 50 | C=CC(=O)Nc1cc(Nc2ncc(Cl)c(Nc3ccccc3P(C)(C)=O)n2)c(OC)cc1N1CCC(N2CCOCC2)C1 (stereo not drawn) [Example 28, N-(5-((5-chloro-4-((2-(dimethylphosphoryl)phenyl)amino)pyrimidin-2-yl)amino)-4-methoxy-2-(3-morpholinopyrrolidin-1-yl)phenyl)acrylamide] | – | ≥ 250 |
| 50 to 100 | < 50 | < 50 | < 50 | < 50 | – | – | – | C=CC(=O)Nc1cc(Nc2ncc(Cl)c(Nc3ccccc3P(C)(C)=O)n2)c(OC)cc1C#CC(C)(C)N1CCCC1 [Example 116, N-(5-((5-chloro-4-((2-(dimethylphosphoryl)phenyl)amino)pyrimidin-2-yl)amino)-4-methoxy-2-(3-methyl-3-(pyrrolidin-1-yl)but-1-yn-1-yl)phenyl)acrylamide] | ≥ 250 | – |
| < 50 | < 50 | < 50 | < 50 | < 50 | – | – | – | C=CC(=O)Nc1cc(Nc2ncc(Cl)c(Nc3ccccc3P(C)(C)=O)n2)c(Cl)cc1C#CCN(C)C [Example 156, N-(4-chloro-5-((5-chloro-4-((2-(dimethylphosphoryl)phenyl)amino)pyrimidin-2-yl)amino)-2-(3-(dimethylamino)prop-1-yn-1-yl)phenyl)acrylamide] | ≥ 250 | – |
| – | – | – | < 50 | < 50 | < 50 | < 50 | < 50 | C=C(CN1CCN(S(C)(=O)=O)CC1)C(=O)Nc1ccc(OC)c(Nc2ncc(Cl)c(Nc3ccccc3P(C)(C)=O)n2)c1 [Example 44, N-(3-((5-chloro-4-((2-(dimethylphosphoryl)phenyl)amino)pyrimidin-2-yl)amino)-4-methoxyphenyl)-2-((4-(methylsulfonyl)piperazin-1-yl)methyl)acrylamide] | – | ≥ 250 |
| – | – | – | < 50 | < 50 | < 50 | < 50 | < 50 | C=CC(=O)Nc1cc(Nc2ncc(Cl)c(Nc3ccccc3P(C)(C)=O)n2)c(OC)cc1N1CCC(N2CCCCC2)C1 (stereo not drawn) [Example 33, N-(5-((5-chloro-4-((2-(dimethylphosphoryl)phenyl)amino)pyrimidin-2-yl)amino)-4-methoxy-2-(3-(piperidin-1-yl)pyrrolidin-1-yl)phenyl)acrylamide] | – | ≥ 250 |

Reference: patent publication US9834571B2, “Compounds for inhibiting cell proliferation in EGFR-driven cancers” (ARIAD Pharmaceuticals, Inc., priority 2012, dated 2017)
